The structures appear in SMILES notation.

The record followed here is US20110086759A1, “CHEMICAL COMPOUNDS” (SYNGENTA CROP PROTECTION, INC., priority 2007, published 2011).

Common to all, as to type: in vivo
The subject of experiment [1] is Alopecurus myosuroides (ALOMY). Description: Pre-emergence biological efficacy, glasshouse pot test. Particulars: 312 h, pre-emergence, 1,000 g/ha, evaluated after 13 days (100=total damage; 0=no damage), read-out: Percentage damage ALOMY. The procedure, abridged:
(§1)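 Compound was applied as a spray one day after sowing, at a final dose of 1000 or 250 g/ha. Plants grew under 14 h light, 24/16 °C and 65% humidity, and injury was assessed on day 13 on a 0–100 scale.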

In experiment [2] the test system is Amaranthus retoflexus (AMARE). The experiment is described as above. Conditions: Amaranthus retroflexus, 312 h; pre-emergence, 1,000 g/ha, evaluated after 13 days (100=total damage; 0=no damage); read-out: Percentage damage AMARE. The procedure, abridged:
as §1

Experiment [3] has as its system Echinochloa crus-galli (ECHCG). The description is as above. Conditions: 312 h, pre-emergence, 1,000 g/ha, evaluated after 13 days (100=total damage; 0=no damage), read-out: Percentage damage ECHCG. The procedure, abridged: as §1
The test system of experiment [4] is Ipomea hederaceae (IPOHE). The description is as above. Particulars: Ipomoea hederacea, 312 h; pre-emergence, 1,000 g/ha, evaluated after 13 days (100=total damage; 0=no damage); read-out: Percentage damage IPOHE. The procedure, abridged:
as §1

Experiment [5] deals with Setaria faberi (SETFA). The experiment is described as above. Particulars: 312 h, pre-emergence, 1,000 g/ha, evaluated after 13 days (100=total damage; 0=no damage), read-out: Percentage damage SETFA. The procedure, abridged: as §1
The test system of experiment [6] is Solanum nigrum (SOLNI). The description is as above. Particulars: 312 h, pre-emergence, 1,000 g/ha, evaluated after 13 days (100=total damage; 0=no damage), read-out: Percentage damage SOLNI. The procedure, abridged: as §1
In experiment [7] the test system is Alopecurus myosuroides (ALOMY). Kind of experiment: Post-emergence biological efficacy, glasshouse pot test. Conditions: 312 h, post-emergence, 1,000 g/ha, evaluated after 13 days (100=total damage; 0=no damage), read-out: Percentage damage caused to weed species, ALOMY. The procedure, abridged: (§2)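 Plants were sown in standard soil and grown 8 days in a glasshouse (24/16° C. day/night, 14 hours light, 65% humidity), then sprayed post-emergence at 1000 or 250 g/ha from acetone/water (50:50) with 0.5% Tween 20. Damage was scored visually after 13 days (0 = none, 100 = total).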

Experiment [8] concerns Amaranthus retoflexus (AMARE). The experiment is described as above. Particulars: Amaranthus retroflexus, 312 h; post-emergence, 1,000 g/ha, evaluated after 13 days (100=total damage; 0=no damage); read-out: Percentage damage caused to weed species, AMARE. The procedure, abridged: as §2
Experiment [9] deals with Echinochloa crus-galli (ECHCG). The description is as above. Conditions: 312 h, post-emergence, 1,000 g/ha, evaluated after 13 days (100=total damage; 0=no damage), read-out: Percentage damage caused to weed species, ECHCG. The procedure, abridged:
as §2

In experiment [10] the test system is Ipomea hederaceae (IPOHE). The description is as above. Conditions: Ipomoea hederacea, 312 h; post-emergence, 1,000 g/ha, evaluated after 13 days (100=total damage; 0=no damage); read-out: Percentage damage caused to weed species, IPOHE. The procedure, abridged: as §2
Experiment [11] deals with Setaria faberi (SETFA). The description is as above. Conditions: 312 h, post-emergence, 1,000 g/ha, evaluated after 13 days (100=total damage; 0=no damage), read-out: Percentage damage caused to weed species, SETFA. The procedure, abridged: as §2
Experiment [12] deals with Solanum nigrum (SOLNI). The description is as above. Conditions: 312 h, post-emergence, 1,000 g/ha, evaluated after 13 days (100=total damage; 0=no damage), read-out: Percentage damage caused to weed species, SOLNI. The procedure, abridged: as §2

As to `COC(=O)c1nc(C2CC2)nc(NC2CCCCC2)c1Cl` [Compound 4-35, 5-Chloro-4-cyclohexylamino-2-cyclopropyl-6-methoxycarbonyl-pyrimidine], the pest or weed control at 1000 g/ha (in [1]; in experiment [2]; in [3]; in experiment [4]; in the experiment with Setaria faberi (SETFA) [5]; in the experiment on Solanum nigrum (SOLNI) [6]) was 0% each time. For the same compound, the pest or weed control at 1000 g/ha in experiment [7] turned out to be 30%; in experiment [8], 30%; in experiment [9], 0%; in experiment [10], 60%; in the experiment with Setaria faberi (SETFA) [11] it was 20%; with Solanum nigrum (SOLNI) [12], 40%.
For the compound `COC(=O)c1nc(C2CC2)nc(Nc2ccccc2)c1Cl` [Compound 4-39, 5-Chloro-2-cyclopropyl-6-methoxycarbonyl-4-phenylamino-pyrimidine], the pest or weed control at 1000 g/ha in [1] was found to be 0%; in [2], 60%; in experiment [3], 20%; in experiment [4] it was 80%; in the experiment on Setaria faberi (SETFA) [5], 0%; with Solanum nigrum (SOLNI) [6], 50%. Also, the pest or weed control at 1000 g/ha in experiment [7] stood at 50%; in [8], 100%; in experiment [9], 70%; in experiment [10] it was 70%; in the experiment on Setaria faberi (SETFA) [11] it was 60%; with Solanum nigrum (SOLNI) [12] it was 80%.
As to `COC(=O)c1nc(C2CC2)nc(Nc2ccc(Cl)c(Cl)c2)c1Cl` [Compound 4-42, 5-Chloro-2-cyclopropyl-4-(3,4-dichlorophenyl-amino)-6-methoxycarbonyl-pyrimidine], the pest or weed control at 1000 g/ha in [1] amounted to 10%; in experiment [2] it was 30%; in [3] it was 20%; in experiment [4] it was 0%; in the experiment on Setaria faberi (SETFA) [5] it was 10%; in the experiment on Solanum nigrum (SOLNI) [6], 0%. The pest or weed control at 1000 g/ha came out at 10% in experiment [7]; 50% in experiment [8]; 10% in experiment [9]; 60% in experiment [10]; 0% in the experiment on Setaria faberi (SETFA) [11]; 50% with Solanum nigrum (SOLNI) [12].
Regarding `COC(=O)c1nc(C2CC2)nc(NCC2CC2)c1Cl` [Compound 4-43, 5-Chloro-2-cyclopropyl-4-cyclopropylmethyl-amino-6-methoxycarbonyl-pyrimidine], the pest or weed control at 1000 g/ha was 70% in [1]; 90% in experiment [2]; 70% in experiment [3]; 80% in experiment [4]; 70% with Setaria faberi (SETFA) [5]; 90% in the experiment with Solanum nigrum (SOLNI) [6]. Besides, the pest or weed control at 1000 g/ha came to 60% in experiment [7]; 100% in experiment [8]; 70% in [9]; 100% in experiment [10]; 100% in the experiment with Setaria faberi (SETFA) [11]; 90% with Solanum nigrum (SOLNI) [12].
Turning to `COC(=O)c1nc(C2CC2)nc(NCC2CCCCC2)c1Cl` [Compound 4-49, 5-Chloro-4-cyclohexylmethyl-amino-2-cyclo-propyl-6-methoxy-carbonylpyrimidine], the pest or weed control at 1000 g/ha in experiment [1] came to 0%; in experiment [2], 10%; in experiment [3] it was 0%; in experiment [4] it was 40%; in the experiment with Setaria faberi (SETFA) [5] it was 0%; with Solanum nigrum (SOLNI) [6], 30%. Also, the pest or weed control at 1000 g/ha worked out at 10% in [7]; 100% in experiment [8]; 40% in experiment [9]; 70% in experiment [10]; 40% with Setaria faberi (SETFA) [11]; 70% in the experiment with Solanum nigrum (SOLNI) [12].
On to `COC(=O)c1nc(C2CC2)nc(NCC2(O)CCCCC2)c1Cl` [Compound 4-50, 5-Chloro-2-cyclopropyl-4-[(1-hydroxycyclohex-1-yl)methylamino]-6-methoxycarbonyl-pyrimidine], for which the pest or weed control at 1000 g/ha in [1] came out at 10%; in [2], 100%; in experiment [3], 10%; in experiment [4], 100%; in the experiment with Setaria faberi (SETFA) [5] it was 10%; with Solanum nigrum (SOLNI) [6] it was 100%. Further, the pest or weed control at 1000 g/ha in experiment [7] was found to be 10%; in [8], 100%; in [9] it was 10%; in experiment [10], 70%; in the experiment with Setaria faberi (SETFA) [11], 50%; with Solanum nigrum (SOLNI) [12], 80%.
With `COC(=O)c1nc(C2CC2)nc(NCC2CCC(C#N)CC2)c1Cl` (stereo not drawn) [Compound 4-51, 5-Chloro-4-[(4-cyanocyclohexyl)methylamino]-2-cyclopropyl-6-methoxycarbonyl-pyrimidine], the pest or weed control at 1000 g/ha came out at 0% in experiment [1]; 30% in [2]; 0% in [3]; 50% in [4]; 0% in the experiment on Setaria faberi (SETFA) [5]; 10% in the experiment with Solanum nigrum (SOLNI) [6]. Besides, the pest or weed control at 1000 g/ha in [7] came to 10%; in [8], 50%; in experiment [9], 20%; in [10], 60%; with Setaria faberi (SETFA) [11], 50%; with Solanum nigrum (SOLNI) [12], 50%.
Turning to `COC(=O)c1nc(C2CC2)nc(NCC2CCCCCCC2)c1Cl` [Compound 4-52, 5-Chloro-4-cyclooctylmethyl-amino-2-cyclo-propyl-6-methoxy-carbonylpyrimidine], the pest or weed control at 1000 g/ha in [1] was 0%; in experiment [2], 40%; in experiment [3] it was 0%; in experiment [4], 0%; in the experiment with Setaria faberi (SETFA) [5], 0%; in the experiment with Solanum nigrum (SOLNI) [6] it was 30%. Also, the pest or weed control at 1000 g/ha was determined as 0% in experiment [7]; 30% in experiment [8]; 20% in experiment [9]; 50% in experiment [10]; 20% in the experiment on Setaria faberi (SETFA) [11]; 60% with Solanum nigrum (SOLNI) [12].
In the case of `COC(=O)c1nc(C2CC2)nc(NCC2CCCO2)c1Cl` (stereo not drawn) [Compound 4-53, 5-Chloro-2-cyclopropyl-6-methoxy carbonyl-4-(tetrahydrofuran-2-ylmethylamino)-pyrimidine], the pest or weed control at 1000 g/ha in experiment [1] turned out to be 10%; in experiment [2], 60%; in experiment [3], 0%; in [4], 60%; with Setaria faberi (SETFA) [5], 0%; in the experiment on Solanum nigrum (SOLNI) [6] it was 40%. For the same compound, the pest or weed control at 1000 g/ha in experiment [7] is 20%; in [8] it was 100%; in [9] it was 30%; in [10] it was 100%; with Setaria faberi (SETFA) [11], 40%; in the experiment on Solanum nigrum (SOLNI) [12], 90%.
